Results from patent publication US7517858B1, “Prodrugs of pharmaceuticals with improved bioavailability” (The Regents of the University of California, priority 1995, dated 2009).
“Also recorded” adds a separate entry of the source.

Experiments:
[1] = test system: Rauscher leukemia virus complex (RLV); test: Treatment of Rauscher leukemia virus-infected mice (spleen weight); assay type: in vivo; conditions: for effective doses (ED50): RLV-infected BALB/C mice, 21 days oral, prodrug by gavage once a day, AZT in drinking water, spleen weight day 23
Excerpt: 1-O-Octadecyl-sn-glycero-3-phospho-AZT was compared to free AZT in treating mice infected with Rauscher murine leukemia virus (RLV). RLV is a murine retrovirus, and RLV-infected mice are useful as a model system for evaluating therapeutic effectiveness of candidate anti-AIDS drugs against retrovirus induced disease in vivo. […] Effective antiviral agents inhibit the splenomegaly, and a reduction in organ weight correlates with the elimination of virus (Ruprecht, R., et al., Nature 323:467-469 (1986)). […] The closest practical approach to optimum administration is the intake of AZT in drinking water.
Female BALB/C mice were infected with 1×10^4 plaque-forming units (PFU) of Rauscher leukemia virus complex (RLV) on day 0. Control animals were injected with saline. Beginning on day 2, groups of the infected mice as indicated in FIG. 1 were treated with AZT at doses from about 11.0 mg/kg/day to 15.0 mg/kg/day for 21 days either by offering AZT in drinking water or by gavaging with 1-O-octadecyl-sn-glycero-3-P-AZT once a day. On day 23 post-inoculation, the mice in both treatment protocols were sacrificed, and the spleen weights of the animals were determined. The mean spleen weights, indicating relative level of virus infection, for each dose level in the two protocols, are represented in the bar graphs of FIG. 1.

[2] = Tissue distribution 24 h after oral administration of 14C-PFA lipid prodrugs to mice; assay type: in vivo; conditions: oral gavage 20 mg/kg in liposomes, 14C radioactivity (FIG. 2)
Procedure: 1-O-Octadecyl-sn-glycero-3-PFA[^14C] and 1-O-octadecyl-2-O-methyl-sn-glycero-3-PFA[^14C] (30 microcuries/micromole) were dried with dioleoylphosphatidylcholine/cholesterol/drug in a molar ratio of 60/30/10 in a nitrogen stream, lyophilized overnight and isotonic sorbitol was added. After vortexing and warming, the vessel was sonicated at maximum output in a Heat Systems cup and horn sonicator for one hour. The resulting liposome preparation was filtered through a 0.2 micron filter and administered to mice by oral gavage in a dose of 20 mg/kg of the respective PFA lipid prodrugs. After 24 hours the animals were sacrificed and tissues removed, blotted dry, weighed and homogenized. Aliquots were counted and the amount of radioactivity determined. The results are expressed as nanomoles of lipid prodrug PFA[^14C] per gm tissue.

[3] = test system: human cytomegalovirus (HCMV); test: Human cytomegalovirus (HCMV) antiviral susceptibility assay (HCMV DNA hybridization in MRC-5 cells); assay type: cell-based; conditions: for IC50: HCMV-infected MRC-5 human lung fibroblasts, HCMV DNA after 5 days, mean ± SD (n); for antiviral activity compared in words: comparison with PFA / B-PFA
Procedure: Subconfluent MRC-5 cells in 24-well culture dishes were pretreated for 24 hours with various concentrations of drug in MEM medium containing 2% FBS and antibiotics. The media was removed and virus added at a dilution that will result in a 3-4+ cytopathic effect (CPE) in the no-drug wells in five days. This was absorbed for 1 hour at 37° C., aspirated and replaced with the drug dilutions. After five days of incubation HCMV DNA was quantified in triplicate by nucleic acid hybridization using a CMV AntiviraL Susceptibility Test Kit from Diagnostic Hybrids, Inc. (Athens, Ohio). The media was removed and cells lysed according to the manufacturer's instructions.
After absorption of the lysate, the Hybriwix™ filters were hybridized overnight at 60° C. The Hybriwix™ were washed for 30 minutes at 73° C. and counted in a gamma counter. The results are expressed as HCMV DNA as a percentage of the untreated HCMV-infected control cells.

HSV-1 virus = test: HSV antiviral susceptibility assay (HSV DNA hybridization in MRC-5 cells); assay type: cell-based, human herpes simplex virus 1; conditions: comparison with PFA / B-PFA
Procedure: Subconfluent MRC-5 cells in 24-well culture dishes were inoculated by removing the media and adding HSV-1 virus at a dilution that will result in a 3-4+CPE in the no-drug well in 20-24 hours. This was absorbed for 1 hour at 37° C., aspirated and replaced with various concentrations of drugs in MEM medium containing 2% FBS and antibiotics. After approximately 24 hours of incubation, HSV DNA was quantified in triplicate by nucleic acid hybridization using a HSV Antiviral Susceptibility Test Kit from Diagnostic Hybrids, Inc. (Athens, Ohio). The media was removed and cells lysed according to the manufacturer's instructions. After absorption of the lysate, the Hybriwix™ filters were hybridized overnight at 60° C. The Hybriwix™ were washed for 30 minutes at 73° C. and counted in a gamma counter. The results are expressed as a percentage of the untreated HSV-infected control cells.

[4] = test system: human immunodeficiency virus-1; test: Plaque reduction assay for HIV-1 replication in HT4-6C cells; assay type: cell-based; conditions: comparison with PFA / B-PFA / BB-PFA
Procedure: HT4-6C cells and plaque reduction assay, CD4-expressing HeLa cells, HT4-6C cells (Chesebro, B. and K. Wehrly (1988) J. Virol. 62:3779-3788), were obtained from Bruce Chesebro, Hamilton, Mont. The effect of antiviral compounds on HIV replication was measured by a plaque reduction assay. Briefly, monolayers of HT4-6C cells were infected with 100 to 300 PFU of virus per well in 24-well microdilution plates. Various concentrations of drug were added to the culture medium, Dulbecco's Modified Eagle Medium containing 5% fetal bovine serum and antibiotics, as noted above. After 3 days at 37° C., the monolayers were fixed with 10% formaldehyde solution in phosphate-buffered saline and stained with 0.25% crystal violet to visualize virus plaques (Larder, B. et al. (1989) Science 243:1731-1734). Antiviral activity was assessed as the percentage of control Plaques measured in drug-treated samples.

| Compound | effective doses (ED50) [1] | tissue levels of drug [2] | IC50 [3] [µM] | antiviral activity compared in words ([3]; HCMV) | other results |
| --- | --- | --- | --- | --- | --- |
| CCCCCCCCCCCCCCCCCCOC[C@@H](O)COP(=O)(O)OC[C@H]1O[C@@H](n2cc(C)c(=O)[nH]c2=O)C[C@@H]1N=[N+]=[N-] [1-O-octadecyl-sn-glycero-3-P-AZT, 1-O-Octadecyl-sn-glycero-3-phospho-3′-azido-3′-deoxythymidine] | comparable |  |  |  | inhibition of splenomegaly, effectiveness ([1]; RLV-infected mice, once a day gavage versus free AZT in drinking water (FIG. 1)): as effective, in comparable doses, as virtually continuous free AZT administration |
| Cc1cn([C@H]2C[C@H](N=[N+]=[N-])[C@@H](CO)O2)c(=O)[nH]c1=O [AZT, 3′-azido-3′-deoxythymidine, reference compound] | comparable |  |  |  |  |
| CCCCCCCCCCCCCCCCCCOC[C@@H](O)COP(=O)(O)C(=O)O [B-PFA, 1-O-octadecyl-sn-glycero-3-phosphonoformate] |  | lower levels of drug in most tissues studied including liver, spleen, jejunum and ileum |  |  |  |
| CCCCCCCCCCCCCCCCCCOC[C@H](COP(=O)(O)C(=O)O)OCc1ccccc1 [BB-PFA, 1-O-octadecyl-2-O-benzyl-sn-glycero-3-phosphonoformate] |  |  | 0.54 ± 0.65 | equivalent in antiviral activity to B-PFA |  |
| CCCCCCCCCCCCCCCCCCOC[C@H](COP(=O)(O)C(=O)O)OC [MB-PFA, 1-O-octadecyl-2-O-methyl-sn-glycero-3-phosphonoformate] |  | higher tissue levels of drug were observed in liver, spleen, lung, brain, kidney and lymph node |  | equivalent in antiviral activity to B-PFA | antiviral activity compared in words (HSV-1 virus): more active than B-PFA; antiviral activity compared in words [4]: significantly more active than B-PFA and BB-PFA; also recorded: more active than B-PFA to a statistically significant degree; drug levels in the small intestine [2]: lower in the small intestine |
| CCCCCCCCCCCCCCCCCCOCC(COP(=O)(O)C(=O)O)(OC)OC [ODDMOP-PFA, 1-O-octadecyl-2,2-dimethoxypropane-3-phosphonoformate] |  |  | 0.22 ± 0.14 | substantially more active | FOLD INCREASE IN ACTIVITY ([3]; versus PFA, HCMV): 209 fold |
